# Results as given in patent US4101669A (priority 1977, dated 1978).
# Tests used:
# [1] = Example 2: stability of substituted acetamide in mixtures with commercial fungicides, 4 hour assay and 1-4 hour pH range; assay type: physicochemical; details: particularly in basic water
# Procedure: is prepared by blending and hammer milling.
# (b) 2-cyano-N-ethylcarbamoyl-2-methoxyiminoacetamide is finely ground.
# The materials above are mixed with the following commercial fungicides in a ratio to provide 1 part of active compound of (a) or (b) with the indicated parts of commodity listed:
# The mixtures are then added to distilled water in one case and 4.7 × 10^-3 N sodium bicarbonate (chosen to represent rather alkaline water) in the other case, at a rate to provide about 150 ppm of substituted acetamide. After 4 hours, the suspensions are assayed to determine the present substituted acetamide remaining. The pH during the 1-4 hour period is also recorded.
# [2] = Example 1: stability of active ingredient at 300 ppm in severe test waters, assay after 4 hours at room temperature; assay type: physicochemical; details: for pH: after 4 hours at room temperature; for assay (as percent of original): 4 hours, room temperature
# Procedure: The stability of the active ingredient formulated as above is compared with that of the pure technical material at 300 ppm in:
# (a) a basic, soda-ash softened water of initial pH 10.2 with 0.66 × 10^-3 N basicity, primarily as carbonate, and
# (b) a strong "sodium bicarbonate" water (prepared to match a Montana well water) with pH 8.8 and 13 × 10^-3 N basicity.
# After 4 hours at room temperature in these severe test waters, the following pH readings and assays (as percent of original) were obtained.
smiles,measurement,setting,value
"CCNC(=O)NC(=O)C(C#N)=NOC [pure compound, 2-cyano-N-ethylcarbamoyl-2-methoxyiminoacetamide]",effect of acidulant on stability in mixtures with commercial fungicides,[1],the acidulant improves stability
same,pH,[2]; water a),7.7
same,assay (as percent of original),"[2]; water a): soda-ash softened, initial pH 10.2, 0.66 × 10^-3 N basicity",43% of original
same,pH,[2]; water b),8.2
same,assay (as percent of original),"[2]; water b): strong sodium bicarbonate water, pH 8.8, 13 × 10^-3 N basicity",16% of original
